Results: PubChem BioAssay AID2060626 (Molecular Pharmacology Branch, DTP, NCI, 2025)

System: 168753-222-R-J1-PDC complex spheroid viability
Test: Anticancer human tumor 168753-222-R-J1-PDC patient-derived bladder carcinoma cell line growth inhibition [CLK]
Settings: for IC50: curve of first compound; for viability, T/C: stronger effect = lower value; active = viability on the fitted dose curve at most 10% of control; inactive = the rest
How it was run: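 Patient-derived tumor cells grown as complex spheroids with HUVEC endothelial cells and mesenchymal stem cells, treated with drug combinations. Concentrations descend in half-log steps from near clinical Cmax, or from 10 microM if Cmax unknown.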

[1] = second compound 0.0316 µM, first compound 0.0316 µM
[2] = second compound 0.0316 µM, first compound 0.1 µM
[3] = second compound 0.0316 µM, first compound 0.316 µM
[4] = second compound 0.0316 µM, first compound 1 µM
[5] = second compound 0.0316 µM, first compound 3.16 µM
[6] = second compound 0.0316 µM, first compound 10 µM
[7] = second compound 0.1 µM, first compound 0.0316 µM
[8] = second compound 0.1 µM, first compound 0.1 µM
[9] = second compound 0.1 µM, first compound 0.316 µM
[10] = second compound 0.1 µM, first compound 1 µM
[11] = second compound 0.1 µM, first compound 3.16 µM
[12] = second compound 0.1 µM, first compound 10 µM
[13] = second compound 0.316 µM, first compound 0.0316 µM
[14] = second compound 0.316 µM, first compound 0.1 µM
[15] = second compound 0.316 µM, first compound 0.316 µM
[16] = second compound 0.316 µM, first compound 1 µM
[17] = second compound 0.316 µM, first compound 3.16 µM
[18] = second compound 0.316 µM, first compound 10 µM
[19] = second compound 1 µM, first compound 0.0316 µM
[20] = second compound 1 µM, first compound 0.1 µM
[21] = second compound 1 µM, first compound 0.316 µM
[22] = second compound 1 µM, first compound 1 µM
[23] = second compound 1 µM, first compound 3.16 µM
[24] = second compound 1 µM, first compound 10 µM
[25] = second compound 3.16 µM, first compound 0.0316 µM
[26] = second compound 3.16 µM, first compound 0.1 µM
[27] = second compound 3.16 µM, first compound 0.316 µM
[28] = second compound 3.16 µM, first compound 1 µM
[29] = second compound 3.16 µM, first compound 3.16 µM
[30] = second compound 3.16 µM, first compound 10 µM
[31] = second compound 10 µM, first compound 0.0316 µM
[32] = second compound 10 µM, first compound 0.1 µM
[33] = second compound 10 µM, first compound 0.316 µM
[34] = second compound 10 µM, first compound 1 µM
[35] = second compound 10 µM, first compound 3.16 µM
[36] = second compound 10 µM, first compound 10 µM
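Note: viability measured after seven days of drug exposure.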
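Throughout, for viability, T/C: luminescence signal used as surrogate for viable cell amount; 100% = DMSO vehicle control wells.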

O=C(c1cc(Cc2n[nH]c(=O)c3ccccc23)ccc1F)N1CCN(C(=O)C2CC2)CC1 + CNC(=O)c1ccc(Nc2nc(OC3CCCC3)c3c(-c4ccc5nc(C)oc5c4)c[nH]c3n2)c(OC)c1
< 31.6 nM: IC50 (second compound 1 µM) | IC50 (second compound 3.16 µM) | IC50 (second compound 10 µM)
inactive: viability, T/C [1] 105% | viability, T/C [2] 113% | viability, T/C [3] 103% | viability, T/C [4] 118% | viability, T/C [5] 114% | viability, T/C [6] 95.5% | viability, T/C [7] 92.3% | viability, T/C [8] 86.1% | viability, T/C [9] 92.8% | viability, T/C [10] 95% | viability, T/C [11] 99.2% | viability, T/C [12] 93.7% | viability, T/C [13] 76.8% | viability, T/C [14] 74.2% | viability, T/C [15] 68.2% | viability, T/C [16] 63.6% | viability, T/C [17] 84.8% | viability, T/C [18] 70.4% | viability, T/C [19] 39.7% | viability, T/C [20] 41% | viability, T/C [21] 37.3% | viability, T/C [22] 39.7% | viability, T/C [23] 44.4% | viability, T/C [24] 38.4% | viability, T/C [25] 24.1% | viability, T/C [26] 26.2% | viability, T/C [27] 22.7% | viability, T/C [28] 17.8% | viability, T/C [29] 22.3% | viability, T/C [30] 25.5% | viability, T/C [31] 17.8% | viability, T/C [32] 18.5% | viability, T/C [33] 18.7% | viability, T/C [34] 18.1% | viability, T/C [35] 18.1% | viability, T/C [36] 21.3%
> 10000 nM: IC50 (second compound 0.0316 µM) | IC50 (second compound 0.1 µM) | IC50 (second compound 0.316 µM)

C=C(F)C(=O)N1CCN(c2nc(OCC3CCCN3C)nc3c2CCN(c2cccc4cccc(Cl)c24)C3)CC1CC#N (stereo unspecified) + CN1CCN(c2cc(C(=O)Nc3cc4cc(-c5cnn(C)c5)ccc4cn3)ccn2)CC1
active: viability, T/C [6] 0.91% | viability, T/C [12] 0.32% | viability, T/C [16] 8.4% | viability, T/C [17] 4.48% | viability, T/C [18] 1.3% | viability, T/C [19] 0.47% | viability, T/C [20] 0.78% | viability, T/C [21] 0.38% | viability, T/C [22] 0.16% | viability, T/C [23] 0.12% | viability, T/C [24] 1.07% | viability, T/C [25] 0.26% | viability, T/C [26] 0.24% | viability, T/C [27] 0.44% | viability, T/C [28] 0.14% | viability, T/C [29] 0.87% | viability, T/C [30] 0.23% | viability, T/C [31] 0.27% | viability, T/C [32] 0.19% | viability, T/C [33] 0.28% | viability, T/C [34] 0.24% | viability, T/C [35] 0.36% | viability, T/C [36] 2.34%
3260 nM: IC50 (second compound 0.0316 µM)
1230 nM: IC50 (second compound 0.1 µM)
< 31.6 nM: IC50 (second compound 0.316 µM) | IC50 (second compound 1 µM) | IC50 (second compound 3.16 µM) | IC50 (second compound 10 µM)
inactive: viability, T/C [1] 89.1% | viability, T/C [2] 111% | viability, T/C [3] 85.8% | viability, T/C [4] 101% | viability, T/C [5] 51.4% | viability, T/C [7] 58.7% | viability, T/C [8] 46.7% | viability, T/C [9] 63.5% | viability, T/C [10] 56.3% | viability, T/C [11] 21.8% | viability, T/C [13] 15.6% | viability, T/C [14] 13% | viability, T/C [15] 11.8%

C=CC(=O)N1CCN(c2nc(=O)n(-c3c(C)ccnc3C(C)C)c3nc(-c4c(O)cccc4F)c(F)cc23)C(C)C1 (stereo unspecified) + CNC(=O)c1ccc(Nc2nc(OC3CCCC3)c3c(-c4ccc5nc(C)oc5c4)c[nH]c3n2)c(OC)c1
> 10000 nM: IC50 (second compound 0.0316 µM) | IC50 (second compound 0.1 µM) | IC50 (second compound 0.316 µM)
inactive: viability, T/C [1] 107% | viability, T/C [2] 96.7% | viability, T/C [3] 111% | viability, T/C [4] 128% | viability, T/C [5] 117% | viability, T/C [6] 113% | viability, T/C [7] 104% | viability, T/C [8] 98.5% | viability, T/C [9] 97.5% | viability, T/C [10] 107% | viability, T/C [11] 102% | viability, T/C [12] 95.2% | viability, T/C [13] 85.7% | viability, T/C [14] 83.5% | viability, T/C [15] 74.8% | viability, T/C [16] 78.3% | viability, T/C [17] 94.1% | viability, T/C [18] 82.2% | viability, T/C [19] 51.7% | viability, T/C [20] 35.4% | viability, T/C [21] 45.4% | viability, T/C [22] 47.8% | viability, T/C [23] 41.4% | viability, T/C [24] 30.9% | viability, T/C [25] 23.3% | viability, T/C [26] 25.6% | viability, T/C [27] 26.6% | viability, T/C [28] 26.3% | viability, T/C [29] 30.4% | viability, T/C [30] 19.4% | viability, T/C [31] 18.8% | viability, T/C [32] 23.5% | viability, T/C [33] 20.9% | viability, T/C [34] 24.5% | viability, T/C [35] 19.4% | viability, T/C [36] 16.4%
< 31.6 nM: IC50 (second compound 1 µM) | IC50 (second compound 3.16 µM) | IC50 (second compound 10 µM)
